Data reported in patent US6610483B1, “Methods for identifying cellular responses attributable to signaling molecule inhibition and inhibitors thereof” (priority 1999, dated 2003).

Tests used:
PDGFR = conditions: cited from earlier work
mutant CDC28 F88G cells = assay: DNA chip array of gene transcripts in mutant CDC28 F88G yeast cells exposed to the mutant inhibitor; assay type: cell-based; conditions: 500 nM
Description: Yeast cells expressing a functionally silent, mutant form of the wild-type protein kinase CDC28, termed CDC28 F88G, were prepared by the methods of standard yeast genetics as described in “Guide to Yeast Genetics and Molecular Biology” (Methods in Enzymology, Vol.194) by Christine Guthrie, Gerald R. Fink (Editor) Vol 194 (February 1991) Academic Press. A selective inhibitor of the mutant kinase, with little effect on the wild-type kinase, was prepared and identified using the methods described in Application Serial No. 60/115,340. Using DNA chip array technology, the levels of 6100 gene transcripts were quantitated in mRNA isolated from yeast cells expressing either wild type or F88G (mutant) CDC28 protein kinase either untreated or treated for treated for 30 minutes or 120 minutes with 500 nanomolar (nM) 4-amino-1-(tert-butyl)-3-(1′-naphthylmethyl)pyrazolo[3,4-d]pyrimidine dissolved in DMSO (500) or simply DMSO (DMSO). A change is defined as 2 fold increase or decrease in a gene transcript that is present or absent only in a particular sample. Methods for measuring transcripts were those described in Wodicka L, Dong H, Mittmann M, Ho M H, Lockhart D J, Genome-wide expression monitoring in Saccharomyces cerevisiae, Nat. Biotechnol. (1997) 15:1359-67. The results and comparisons among the gene transcripts are shown in FIGS. 1-4, with the identities of the particular gene transcripts listed in FIG. 5. Non-specific drug effects are the result of the exposure of the inhibitor to wild-type cells. The mutation effects are indicated by the alterations between the expression pattern between the mutant cells and the wild-type cells, both in the absence of inhibitor. The results of specific inhibition are shown by the differences between the mutant cells before and after exposure to the inhibitor, including increases and decreases. Effects of the inhibitor were evaluated at 30 and 120 minutes. These two time points were chosen based on the known time interval for yeast cell cycle progression which is about 90 minutes. Thus one time point shorter than the full cell cycle progression time (30 minutes) and one time point longer than […] (120 minutes) were chosen. The comparisons of results are shown in FIGS. 1-4, and the details of the particular transcripts altered in FIG. 5.

[1] = test system: wild-type yeast cells with CDC28; assay: DNA chip array of gene transcripts in wild-type yeast cells exposed to the mutant inhibitor; assay type: cell-based; conditions: 500 nM, change of 2 fold or more
Description: Yeast cells expressing a functionally silent, mutant form of the wild-type protein kinase CDC28, termed CDC28 F88G, were prepared by the methods of standard yeast genetics as described in “Guide to Yeast Genetics and Molecular Biology” (Methods in Enzymology, Vol.194) by Christine Guthrie, Gerald R. Fink (Editor) Vol 194 (February 1991) Academic Press. A selective inhibitor of the mutant kinase, with little effect on the wild-type kinase, was prepared and identified using the methods described in Application Serial No. 60/115,340. Using DNA chip array technology, the levels of 6100 gene transcripts were quantitated in mRNA isolated from yeast cells expressing either wild type or F88G (mutant) CDC28 protein kinase either untreated or treated for treated for 30 minutes or 120 minutes with 500 nanomolar (nM) 4-amino-1-(tert-butyl)-3-(1′-naphthylmethyl)pyrazolo[3,4-d]pyrimidine dissolved in DMSO (500) or simply DMSO (DMSO). A change is defined as 2 fold increase or decrease in a gene transcript that is present or absent only in a particular sample. Methods for measuring transcripts were those described in Wodicka L, Dong H, Mittmann M, Ho M H, Lockhart D J, Genome-wide expression monitoring in Saccharomyces cerevisiae, Nat. Biotechnol. (1997) 15:1359-67. […] Effects of the inhibitor were evaluated at 30 and 120 minutes. […]

Compound | IC50 (PDGFR) | genes altered (mutant CDC28 F88G cells; 30 minute exposure) | genes decreased more than two-fold (mutant CDC28 F88G cells; 30 minute exposure) | genes increased more than two-fold (mutant CDC28 F88G cells; 30 minute exposure) | genes altered (mutant CDC28 F88G cells; 120 minute exposure) | genes decreased (mutant CDC28 F88G cells; 120 minute exposure) | genes increased (mutant CDC28 F88G cells; 120 minute exposure) | genes altered (non-specific drug effects) ([1]; 30 minute exposure) | genes altered (non-specific drug effects) ([1]; 120 minute exposure)
CC(C)(C)n1nc(Cc2cccc3ccccc23)c2c(N)ncnc21 [4-amino-1-(tert-butyl)-3-(1′-naphthylmethyl)pyrazolo[3,4-d]pyrimidine] |  | 85 genes | 74 genes | 11 genes | 186 genes | 100 genes | 86 genes | 7 genes | 3 genes
